Reference: EP0597303A2, “Cephalosporin derivatives” (priority 1992, dated 1994)
Structures can show the parent of a compound that is named as a salt.

Assays:
Test in all cases: MIC, Agar (Mueller Hinton) Dilution Method
Assay type in all cases: cell-based
Xan. maltophilia 2897B = settings: Stenotrophomonas maltophilia, Gram Negative
Excerpt: (§1) The in vitro activity of the compounds of formula I of the present invention as measured by the Minimum Inhibitory Concentration (MIC) in micrograms/ml utilizing the Agar (Mueller Hinton) Dilution Method against a variety of Gram-positive and Gram-negative organisms, is set forth in Table 1.

Ser. marcescens 1071 = settings: Serratia marcescens, 1071
Excerpt: as §1

E. coli 2008 E = settings: Escherichia coli; E. coli 2008 E; Gram Negative; read-out: MIC
Excerpt: as §1

Prot. mirabilis 190 = settings: Proteus mirabilis; Prot. mirabilis 190; Gram Negative; read-out: MIC
Excerpt: as §1

K. pneumoniae 369 = settings: Klebsiella pneumoniae; K. pneumoniae 369; Gram Negative; read-out: MIC
Excerpt: as §1

Ps. aeruginosa K799/61 = settings: Pseudomonas aeruginosa; Ps. aeruginosa K799/61; Gram Negative; read-out: MIC
Excerpt: as §1

Staph. aureus 753 = settings: Staphylococcus aureus, 753
Excerpt: as §1

Prot. mirabilis 2 = settings: Proteus mirabilis, 2
Excerpt: as §1

Staph. pyogenes 4 = settings: Staph. pyogenes 4; Gram Positive and Others; read-out: MIC
Excerpt: as §1

E. coli TEM-1a = settings: Escherichia coli, TEM1A
Excerpt: as §1

Ps. aeruginosa 56-1B = settings: Pseudomonas aeruginosa, 561B; Ps. aeruginosa 56-1B; Gram Negative; read-out: MIC
Excerpt: as §1

Staph. aureus 67 = settings: Staphylococcus aureus; Staph. aureus 67; methicillin-resistant; Gram Positive and Others; read-out: MIC
Excerpt: as §1

E. coli 1269B = settings: Escherichia coli, Gram Negative
Excerpt: as §1

Staph. aureus ATCC 29213 = settings: Staphylococcus aureus, ATCC29213
Excerpt: as §1

Enterobacter cloacae P99 = tested on: Enterobacter cloacae P99
Excerpt: as §1

K. oxytoca 1082EN = settings: Klebsiella oxytoca; K. oxytoca 1082EN; Gram Negative; read-out: MIC
Excerpt: as §1

E. coli ATCC 25922 = settings: Escherichia coli, ATCC25922; E. coli ATCC 25922; Gram Negative; read-out: MIC
Excerpt: as §1

Candida albicans 155 = settings: Gram Positive and Others
Excerpt: as §1

[1] = tested on: Pseudomonas aeruginosa 5712; settings: Gram Negative
Excerpt: as §1

Staph. aureus 3647B = settings: Staphylococcus aureus, 3647B
Excerpt: as §1

Prot. mirabilis 90 = settings: Proteus mirabilis; Prot. mirabilis 90; Gram Negative; read-out: MIC
Excerpt: as §1

Enter. cloacae 4192-2 = settings: Enterobacter cloacae, 41922
Excerpt: as §1

Staph. aureus 82 = settings: Staphylococcus aureus, 82
Excerpt: as §1

Prot. mirabilis 503-1136 = settings: Proteus mirabilis, 5031136
Excerpt: as §1

Ser. sp. 101 = tested on: Ser. sp. 101
Excerpt: as §1

Ps. cepacia 1973 B = settings: Burkholderia cepacia, Gram Negative
Excerpt: as §1

E. coli 1894 E = settings: Escherichia coli; E. coli 1894 E; Gram Negative; read-out: MIC
Excerpt: as §1

E. coli 2721B = settings: Escherichia coli, 2721B
Excerpt: as §1

Ps. aeruginosa B = settings: Pseudomonas aeruginosa, Gram Negative
Excerpt: as §1

Ps. aeruginosa 1937E = settings: Pseudomonas aeruginosa, Gram Negative
Excerpt: as §1

Klebsiella pneumoniae A = settings: Gram Negative
Excerpt: as §1

Str. pyogenes 503-782 = settings: Streptococcus pyogenes, 503782; Str. pyogenes 503-782; Gram Positive and Others; read-out: MIC
Excerpt: as §1

Enter. cloacae 5699 = settings: Enterobacter cloacae, Gram Negative
Excerpt: as §1

[2] = tested on: Proteus vulgaris ATCC 6380; settings: Proteus vulgaris, ATCC6380
Excerpt: as §1

Ps. aeruginosa 56 = settings: Pseudomonas aeruginosa, Gram Negative
Excerpt: as §1

Ent. hirae ATCC 8043 = settings: Enterococcus hirae, ATCC8043, Gram Positive and Others
Excerpt: as §1

Micrococcus luteus PCI = settings: Micrococcus luteus PCI; Gram Positive and Others; read-out: MIC
Excerpt: as §1

E. coli 2722B = settings: Escherichia coli, Gram Negative
Excerpt: as §1

Q: What does the source list for `N#CCC(=O)N[C@@H]1C(=O)N2C(C(=O)O)=C(COC(=O)N[C@@H]3CCN(c4c(F)cc5c(=O)c(C(=O)O)cn(C6CC6)c5c4F)C3)CS[C@H]12` [Formula Ibb, [6R-[3(R^*), 6 alpha, 7 beta]]-3-[[[[[1-(3-Carboxy-1-cyclopropyl-6,8-difluoro-1,4-dihydro-4-oxo-7-quinolinyl-3-pyrrolidinyi]amino]carbonyl]oxy]methyL]-7-[(cyanoacetyl)amino]-8-oxo-5-thia-1-azabicyclo[4.2.0]oct-2-ene-2-carboxylic acid monosodium salt]?
A: MIC (Xan. maltophilia 2897B): 0.5 µg/mL; MIC (Ser. marcescens 1071): 0.125 µg/mL; MIC (E. coli 2008 E): 0.0625 µg/mL; MIC (Prot. mirabilis 190): 0.0625 µg/mL; MIC (K. pneumoniae 369): 0.5 µg/mL; MIC (Ps. aeruginosa K799/61): 0.25 µg/mL; MIC (Staph. aureus 753): 0.125 µg/mL; MIC (Prot. mirabilis 2): 0.125 µg/mL; MIC (Staph. pyogenes 4): 0.0625 µg/mL; MIC (E. coli TEM-1a): 0.125 µg/mL; MIC (Ps. aeruginosa 56-1B): 0.5 µg/mL; MIC (Staph. aureus 67): 0.5 µg/mL; MIC (E. coli 1269B): 0.0625 µg/mL; MIC (Staph. aureus ATCC 29213): 0.125 µg/mL; MIC (Enterobacter cloacae P99): ≤ 0.0156 µg/mL; MIC (K. oxytoca 1082EN): 0.0625 µg/mL; MIC (E. coli ATCC 25922): 0.0625 µg/mL; MIC (Candida albicans 155): > 128 µg/mL; MIC [1]: 4 µg/mL; MIC (Staph. aureus 3647B): 0.125 µg/mL; MIC (Prot. mirabilis 90): 0.5 µg/mL; MIC (Enter. cloacae 4192-2): 0.0313 µg/mL; MIC (Staph. aureus 82): 0.125 µg/mL; MIC (Prot. mirabilis 503-1136): 0.125 µg/mL; MIC (Ser. sp. 101): 0.125 µg/mL; MIC (Ps. cepacia 1973 B): 4 µg/mL; MIC (E. coli 1894 E): 0.0625 µg/mL; MIC (E. coli 2721B): 0.0313 µg/mL; MIC (Ps. aeruginosa B): 1 µg/mL; MIC (Ps. aeruginosa 1937E): 1 µg/mL; MIC (Klebsiella pneumoniae A): 0.25 µg/mL; MIC (Str. pyogenes 503-782): 0.0625 µg/mL; MIC (Enter. cloacae 5699): 0.25 µg/mL; MIC [2]: 0.125 µg/mL; MIC (Ps. aeruginosa 56): 1 µg/mL; MIC (Ent. hirae ATCC 8043): 1 µg/mL; MIC (Micrococcus luteus PCI): 0.0625 µg/mL; MIC (E. coli 2722B): ≤ 0.0156 µg/mL
